The results in this text go back to PMC8468039, “Development of New Meridianin/Leucettine-Derived Hybrid Small Molecules as Nanomolar Multi-Kinase Inhibitors with Antitumor Activity” (Biomedicines, 2021).

Series [1] has as its target T1, FMS (Homo sapiens, UniProt P07333).
T1 construct: purchased Reaction Biology Corp
As to the kind of experiment: In vitro kinase inhibition assay (HotSpot, Reaction Biology). It counts as biochemical. Particulars: for IC50: 10-dose, 3-fold serial dilution starting at 100 μM; for fold more potent than imatinib over FMS: from IC50 values; for inhibition at 10 µM: read-out: Percent Inhibition, FMS. As to the method:
The in vitro kinase inhibition assay was carried out by Reaction Biology Corp. (Reaction Biology Corp., Chester, PA, USA) Kinase HotSpot^SM service (http://www.reactionbiology.com, accessed on 15 January 2021), following the previously reported methods. (For details, see Supplementary Material).
As mentioned in the introduction, to get insights about the kinase inhibition profile of the hybrid small molecule 5a, an in vitro screening over a panel of 14 cancer-related kinases was carried out. Accordingly, 10 µM concentrations of compound 5a were used in a kinase inhibition assay over various kinase groups and families in the presence of 10 µM ATP using HotSpotSM technology. To get a comprehensive picture of the inhibitory activities of the tested compound (5a) against the kinase panel, data are illustrated in Table 1. […] Compound 5a was also able to suppress the kinase activity of the epidermal growth factor receptor (EGFR), platelet-derived growth factor receptor-alpha (PDGFRα), and cyclin-dependent kinase 2 (CDK2) with modest inhibition values of 26.99 ± 0.9, 24.0 ± 0.4, and 20.1 ± 0.1%, respectively. […] Several studies have confirmed direct relationships between the most affected kinases (FMS, LCK, LYN, and DAPK1) and different human disorders including cancer.
5. Protocol of Kinase assay
Kinases inhibitory activities were assessed by the HotSpot assay platform, which contained specific kinase/substrate pairs along with required cofactors. Base reaction buffer: 20 mM Hepes (pH 7.5), 10 mM MgCl2, 1 mM EGTA, 0.02% Brij35, 0.02 mg/ml BSA, 0.1 mM Na3VO4, 2 mM DTT, 1% DMSO. Testing compounds were dissolved in 100% DMSO to specific concentration. The serial dilution was conducted by Integra Viaflo Assist in DMSO. The reaction mixture containing the examined compound and 33P-ATP was incubated at room temperature for 2h and radioactivity was detected by filter-binding method. Kinase activity data were expressed as the percent remaining kinase activity in test samples compared to vehicle (dimethyl sulfoxide) reactions. IC50 values and curve fits were obtained using Prism (GraphPad Software).

Series [2] deals with 786-0. As to the kind of experiment: NCI growth inhibition (SRB) assay. The class given is cell-based. Particulars: Homo sapiens, 786-0, Renal Cancer, single dose 10 µM, 48 h, read-out: Percent Growth Inhibition (GI). As to the method:
(§1) The antitumor assay was performed according to the protocol of the Drug Evaluation Branch, NCI, Bethesda. A 48 h drug exposure protocol was adopted, and sulforhodamine B (SRB) assay was utilized to assess the cell growth and viability, as reported earlier.
(§2) The inhibition results of tumor cell growth by the newly synthesized compounds (5a–5g) are described in Table 4. The reported measurements have been performed at the NIH National Cancer Institute, USA by a standardized assay including a panel of 60 different tumor cell lines (Supplementary Data). The following cancer cell types were included in these assays: Leukemia, non-small cell lung cancer, colon cancer, CNS cancer, melanoma, ovarian cancer, renal cancer, prostate, and breast cancer. […] Additionally, the 3,4-dimethoxy substituted compound (5b) also suffered poor activity against the cancer cell lines.

Series [3] relates to A498. Kind of series: NCI growth inhibition (SRB) assay. The class given is cell-based. To be noted: Homo sapiens, A498, Renal Cancer, single dose 10 µM, 48 h, read-out: Percent Growth Inhibition (GI). As for the experimental part: as §1, §2
Series [4] has as its system ACHN. Kind of series: NCI growth inhibition (SRB) assay. The class given is cell-based. Particulars: Homo sapiens, Renal Cancer, single dose 10 µM, 48 h, read-out: Percent Growth Inhibition (GI). As for the experimental part: as §1, §2
Series [5] has as its system CCRF-CEM. As to the kind of experiment: NCI growth inhibition (SRB) assay. The class given is cell-based. To be noted: Homo sapiens, Leukemia, single dose 10 µM, 48 h, read-out: Percent Growth Inhibition (GI). As for the experimental part: as §1, §2
Series [6] relates to COLO 205. As to the kind of experiment: NCI growth inhibition (SRB) assay. It counts as cell-based. To be noted: Homo sapiens, COLO 205, Colon Cancer, single dose 10 µM, 48 h, read-out: Percent Growth Inhibition (GI). As to the method:
as §1, §2

The subject of series [7] is HOP-92. As to the kind of experiment: NCI growth inhibition (SRB) assay. It counts as cell-based. To be noted: Homo sapiens, HOP-92, Non-Small Cell Lung Cancer, single dose 10 µM, 48 h, read-out: Percent Growth Inhibition (GI). As to the method: as §1, §2
Series [8] has as its system IGROV1. As to the kind of experiment: NCI growth inhibition (SRB) assay. To be noted: Homo sapiens, IGROV-1, IGROV1, Ovarian Cancer, single dose 10 µM, 48 h, read-out: Percent Growth Inhibition (GI). The class given is cell-based. As for the experimental part:
as §1, §2

The test system of series [9] is K-562. Kind of series: NCI growth inhibition (SRB) assay. The class given is cell-based. Particulars: Homo sapiens, K562, K-562, Leukemia, single dose 10 µM, 48 h, read-out: Percent Growth Inhibition (GI). As for the experimental part: as §1, §2
Series [10] concerns KM12. As to the kind of experiment: NCI growth inhibition (SRB) assay. The class given is cell-based. To be noted: Homo sapiens, KM12, Colon Cancer, single dose 10 µM, 48 h, read-out: Percent Growth Inhibition (GI). As for the experimental part:
as §1, §2

Series [11] has as its system SR. Kind of series: NCI growth inhibition (SRB) assay. The class given is cell-based. As to the method: as §1, §2
Series [12] relates to T-47D. As to the kind of experiment: NCI growth inhibition (SRB) assay. The class given is cell-based. To be noted: Homo sapiens, T47D, Breast Cancer, single dose 10 µM, 48 h, read-out: Percent Growth Inhibition (GI). As for the experimental part:
as §1, §2

In series [13] the test system is panel of 60 different tumor cell lines. Kind of series: NCI antitumor assay, panel of 60 tumor cell lines. It counts as cell-based. To be noted: single dose 10 µM, result in words. As to the method:
as §1, §2

Setting [14] is: single dose of 10 µM, 10 µM ATP as printed.
Setting [15] is: Homo sapiens, Leukemia, single dose 10 µM, 48 h, read-out: Percent Growth Inhibition (GI).

Molecules are shown by their SMILES. “And” between values parts separate entries of the source, which are not always exact repeats. Equal entries are not always repeated. Where two headings read alike, the source gives them in different places.

T1 sequence (P07333 20-972): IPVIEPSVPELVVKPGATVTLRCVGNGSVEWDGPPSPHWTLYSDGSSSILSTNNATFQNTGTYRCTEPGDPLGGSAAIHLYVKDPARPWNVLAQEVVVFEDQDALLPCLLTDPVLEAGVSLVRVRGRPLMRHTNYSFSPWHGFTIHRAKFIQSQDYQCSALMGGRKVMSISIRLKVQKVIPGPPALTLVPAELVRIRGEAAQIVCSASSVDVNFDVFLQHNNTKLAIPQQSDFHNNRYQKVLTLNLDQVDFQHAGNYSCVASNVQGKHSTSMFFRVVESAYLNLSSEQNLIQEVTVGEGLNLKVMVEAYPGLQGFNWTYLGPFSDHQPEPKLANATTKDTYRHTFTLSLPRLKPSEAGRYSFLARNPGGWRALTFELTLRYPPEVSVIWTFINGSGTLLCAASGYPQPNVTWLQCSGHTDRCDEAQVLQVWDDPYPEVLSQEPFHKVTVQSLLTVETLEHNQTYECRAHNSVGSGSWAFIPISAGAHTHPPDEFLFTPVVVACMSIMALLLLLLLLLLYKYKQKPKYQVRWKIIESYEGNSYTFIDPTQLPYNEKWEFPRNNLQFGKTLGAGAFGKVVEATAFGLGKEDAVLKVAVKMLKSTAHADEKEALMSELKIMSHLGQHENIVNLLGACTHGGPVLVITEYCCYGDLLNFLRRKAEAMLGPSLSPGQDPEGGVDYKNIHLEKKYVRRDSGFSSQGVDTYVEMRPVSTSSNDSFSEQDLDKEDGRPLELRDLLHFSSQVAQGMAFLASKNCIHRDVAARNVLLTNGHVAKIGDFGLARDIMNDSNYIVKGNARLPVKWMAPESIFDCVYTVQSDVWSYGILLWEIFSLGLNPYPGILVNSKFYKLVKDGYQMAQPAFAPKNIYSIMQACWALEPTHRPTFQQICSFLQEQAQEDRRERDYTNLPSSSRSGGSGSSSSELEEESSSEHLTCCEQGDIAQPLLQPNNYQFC

As to `COc1ccc(Oc2nc(Nc3ccc(N4CCOCC4)cc3)ncc2NC(=O)c2cccc(SC)c2)cc1` [5g, N-(4-(4-Methoxyphenoxy)-2-((4-morpholinophenyl)amino)pyrimidin-5-yl)-3-(methylthio)benzamide], the half-inhibitory concentration (IC50) (as a rule, the concentration needed to halve the response being measured) in [1] amounted to 110 ± 8 nM. For the same molecule, in series [1], the “fold more potent than imatinib over FMS” value was ~ 9 fold and 9 fold. The inhibition (commonly the relative decrease from the control value, in per cent) at 10 µM came to 90.6 ± 0.8% in [1]; 25% in [2]; 18.9% in series [3]; 21.4% in [4]; 13% in series [5]; 4.7% in [6]. Besides, the inhibition at 10 µM in series [7] came out at 20.2%; in [8] it was 33.9%; in series [9] it was 29.1%; in [10], 20.2%; in [11] (Homo sapiens, 48 h, Leukemia, single dose 10 µM, read-out: Percent Growth Inhibition (GI)) it was 60%; in [12], 28.2%. Also, the “Percent Growth Inhibition (GI)” value in series [11] (Leukemia, single dose 10 µM, 48 h) was found to be 60.5%.
Regarding `COc1ccc(Oc2nc(Nc3ccc(N4CCOCC4)cc3)ncc2NC(=O)c2cc(OC)c(OC)c(OC)c2)cc1` [5c, 3,4,5-Trimethoxy-N-(4-(4-methoxyphenoxy)-2-((4-morpholinophenyl)amino)pyrimidin-5-yl)benzamide], the melting point – broadly, the temperature of the solid-liquid transition – fell in the range of 179.5 to 180.5 °C. Also, the inhibition at 10 µM in [1] (setting [14]) came out at 69.9 ± 0.4%. In addition, the inhibition at 10 µM in [2] came out at 44.2%. In addition, the inhibition at 10 µM in series [3] stood at 38.3%. In addition, the inhibition at 10 µM in [4] was 4.83%. Moreover, the inhibition at 10 µM in series [5] is 30.5%. Further, in series [6], the inhibition at 10 µM amounted to 21.6%. Also, the inhibition at 10 µM in series [7] stood at 15.8%. Also, the inhibition at 10 µM in [8] is 11.9%. The inhibition at 10 µM in series [9] was 20.4%. In addition, the inhibition at 10 µM in series [10] was found to be 3.99%. The inhibition at 10 µM in series [11] (setting [15]) is 64.4%. In series [12], the inhibition at 10 µM was 0.52%.
Turning to `COc1ccc(Oc2nc(Nc3ccc(N4CCOCC4)cc3)ncc2NC(=O)c2ccnc([N+](=O)[O-])c2)cc1` [5f, N-(4-(4-Methoxyphenoxy)-2-((4-morpholinophenyl)amino)pyrimidin-5-yl)-2-nitroisonicotinamide], the melting point is 170 to 171 °C. Besides, the inhibition at 10 µM in series [1] (setting [14]) was found to be 65.4 ± 0.1%. Besides, the inhibition at 10 µM in [2] came out at 5.78%. Further, in series [3], the inhibition at 10 µM is 6.39%. For the same molecule, the inhibition at 10 µM in [4] was determined as 1.61%. Besides, in [5], the inhibition at 10 µM came to 16.7%. Besides, in series [6], the inhibition at 10 µM is -14.6%. Moreover, the inhibition at 10 µM in [7] came out at 1.12%. Also, in [8], the inhibition at 10 µM came out at 1.91%. For the same molecule, in series [9], the inhibition at 10 µM was 10.9%. Further, in [10], the inhibition at 10 µM is -1.85%. For the same molecule, the inhibition at 10 µM in series [11] (setting [15]) turned out to be 27.4%. Besides, in series [12], the inhibition at 10 µM stood at 5.93%. In [13], the “inhibitory effects on the different cancer cell lines” value is recorded as “moderate to poor”.
Take `COc1ccc(Oc2nc(Nc3ccc(N4CCOCC4)cc3)ncc2NC(=O)Cc2cc(OC)cc(OC)c2)cc1` [5e, 2-(3,5-Dimethoxyphenyl)-N-(4-(4-methoxyphenoxy)-2-((4-morpholinophenyl)amino)pyrimidin-5-yl)acetamide]: the melting point was 152.7 to 153.7 °C. The inhibition at 10 µM in [1] (setting [14]) was found to be 75.5 ± 0.8%. Further, in series [2], the inhibition at 10 µM is 0.75%. Further, the inhibition at 10 µM in [3] is -6.85%. Also, the inhibition at 10 µM in series [4] is -0.26%. For the same molecule, the inhibition at 10 µM in series [5] was -4.73%. Besides, the inhibition at 10 µM in [6] was -22.4%. Further, the inhibition at 10 µM in [7] amounted to 4.46%. The inhibition at 10 µM in [8] is -9.02%. The inhibition at 10 µM in [9] came to 2.31%. The inhibition at 10 µM in [10] was found to be 1.32%. For the same molecule, the inhibition at 10 µM in series [11] (setting [15]) was 13.2%. The inhibition at 10 µM in [12] was found to be 10.2%. The “inhibitory effects on the different cancer cell lines” value in series [13] is “moderate to poor”.
In series [1], `CCOc1cc(OCC)cc(C(=O)Nc2cnc(Nc3ccc(N4CCOCC4)cc3)nc2Oc2ccc(OC)cc2)c1` [5d, 3,5-Diethoxy-N-(4-(4-methoxyphenoxy)-2-((4-morpholinophenyl)amino)pyrimidin-5-yl)benzamide] gave an IC50 of 213 ± 1 nM. In series [1], the “fold more potent than imatinib over FMS” value is on record as around 5 fold. The inhibition at 10 µM was 95.1 ± 0.3% in [1] (setting [14]); 7.41% in series [2]; 17.9% in series [3]; 20.4% in series [4]; 26.1% in series [5]; -2.11% in [6]. The inhibition at 10 µM in series [7] came out at 3.34%; in series [8], 0.72%; in series [9], 30.7%; in [10] it was 14%; in [11] (setting [15]) it was 33.2%; in series [12], 18.4%. Moreover, the “inhibitory effects on the different cancer cell lines” value in [13] is “moderate to poor”.
`COc1ccc(Oc2nc(Nc3ccc(N4CCOCC4)cc3)ncc2NC(=O)c2ccc(OC)c(OC)c2)cc1` [5b, 3,4-Dimethoxy-N-(4-(4-methoxyphenoxy)-2-((4-morpholinophenyl)amino)pyrimidin-5-yl)benzamide] yielded a melting point of 119.1 to 120.1 °C. Further, the inhibition at 10 µM in series [1] (setting [14]) came to 44.1 ± 0.2%. Further, the inhibition at 10 µM in series [2] was determined as 17.6%. For the same molecule, the inhibition at 10 µM in series [3] is -5.56%. Also, the inhibition at 10 µM in series [4] was -7.28%. The inhibition at 10 µM in series [5] worked out at 5.37%. In series [6], the inhibition at 10 µM is -2.21%. In addition, the inhibition at 10 µM in series [7] is -1.19%. Besides, in [8], the inhibition at 10 µM came to 3.6%. Also, the inhibition at 10 µM in series [9] stood at 8.76%. In addition, the inhibition at 10 µM in series [10] was -4.34%. In addition, the inhibition at 10 µM in series [11] (setting [15]) was found to be 18.8%. Besides, in [12], the inhibition at 10 µM is 2.41%. In addition, the “inhibitory effects on the different cancer cell lines” value in [13] is on record as “moderate to poor”.
